# According to patent US4341756A, “Novel amino-dioxepane intermediates for the synthesis of new non-ionic contrast media” (The Regents of the University of California, priority 1980, dated 1982):
# Assays:
# rats [1] = assay: Aversive conditioning in rats (preference/avoidance after injection into the lateral ventricle); format: in vivo; settings: for Aversion expressed in relation to Metrizamide: Metrizamide = 1; for % Aversion: injection into the lateral ventricle, average from a group of 10 rats
# Description: (§1) Employing conventional procedures, the following tests were carried out and compared with known commercially available contrast media. The following tables indicate the results.
# Aversive conditioning in rats: (Test-
# ing for preference/avoidance after an injection
# into the lateral ventricle via a chronically im-
# planted cannula) (Average from a group of 10 rats)
# Water solubility = format: physicochemical; settings: at 20° C.
# Description: (§2) This compound was synthesized as described for the hydroxyacetyl analog (VIIIb). The product was obtained in 69% yield as a colorless glassy solid.
# Viscosity = format: physicochemical; settings: 37° C., 300 mgI/ml
# Description: as §2
# Blepharisma americ. = assay: Cell Toxicity: LD50 at 4' of a standardized culture of a protozoan; format: cell-based; settings: for LD50: at 4', standardized culture of Blepharisma americ.
# Description: as §1
# (LD50 at 4' of a standardized culture of a
# protozoan Blepharisma americ.)
# rats [2] = assay: Neurotoxicity: neural deficits after intracisternal injections in rats; format: in vivo; settings: for Deficit Scores: average of 10 rats, 0 = normal; for Neural deficits: rats
# Description: as §1
# tions in rats with chronically implanted
# cannulas into the right ventricle.
# Deficit scores were calculated on the basis of a preset rating (average o
# mice = assay: Systemic Toxicity: LD50 of compound injected intravenously in mice; format: in vivo; settings: intravenous, groups of 10 mice
# Description: as §1
# LD50 (gI/kg bw) of compound injected
# intravenously in groups of 10 mice.
SMILES,Aversion expressed in relation to Metrizamide (rats [1]) [times less aversive],% Aversion (rats [1]) [%],solubility in water (Water solubility) [mgI/ml],viscosity (Viscosity) [cps],LD50 (Blepharisma americ.) [mg I/ml],Conclusion on toxicity (Blepharisma americ.; compared with Iopamidol and Metrizamide),Deficit Scores (rats [2]; 40 mg I),Neural deficits (rats [2]; 40 mg I),Deficit Scores (rats [2]; 60 mg I),Deficit Scores (rats [2]; 100 mg I),LD50 (mice) [gI/kg bw],Neural deficits (rats [2]; 100 mg I),Neural deficits (rats [2]; 60 mg I)
"CC(O)C(=O)Nc1c(I)c(C(=O)NC(CO)C(O)CO)c(I)c(C(=O)NC(CO)C(O)CO)c1I (racemic) [VIIIc, 2,4,6-triiodo-5-(2-DL or L-hydroxypropionylamino)-isophthalic acid-bis-N,N'-(1,3,4-trihydroxy-threo-but-2-yl)-amide]",3.4,9.4,> 400,6.6,148,lower toxicity than Iopamidol and Metrizamide,0,Normal,3.0 ± 1.73,26 ± 3.2,21.3,–,–
"C[C@H](O)C(=O)Nc1c(I)c(C(=O)NC(CO)CO)c(I)c(C(=O)NC(CO)CO)c1I [Iopamidol, N,N'-di(1',3'-dihydroxypropyl-2') 5-L-lactoylamido triiodoisophthaldiamide, reference compound]",1.2,24.6,–,–,136,–,1.75 ± 0.96,–,22.0,–,18.7,Death,–
"CC(=O)Nc1c(I)c(C(=O)N[C@H]2C(O)O[C@H](CO)[C@@H](O)[C@@H]2O)c(I)c(N(C)C(C)=O)c1I (stereo partly shown) [Metrizamide, 3-acetamido-5-(N-methylacetamido) triiodobenzoyl derivative of glucosamine, reference compound]",1,29.8,–,–,133,–,25.3 ± 10.1,–,84.2 ± 12.3,–,12.1,Death,–
"CN(C(=O)CC(=O)N(C)c1c(I)c(C(=O)NC(CO)C(O)CO)c(I)c(C(=O)NC(CO)C(O)CO)c1I)c1c(I)c(C(=O)NC(CO)C(O)CO)c(I)c(C(=O)NC(CO)C(O)CO)c1I (stereo not drawn) [XVIII, N,N'-bis-Methyl-N,N'-bis [2,4,5-triiodo-3,5-bis-{N,N'-(1,3,4-trihydroxy-threo-but-2-yl)}-carbamoylphenyl]malondiamide]",–,–,–,–,–,–,0,Normal,0,0,–,Normal,Normal
